Assay results as given in the NIST ThermoML archive (doi:10.1016/j.jct.2011.09.028).
Numbers after ± are expanded uncertainties.

What was measured:
[1] = activity coefficient (dimensionless); of the first substance listed, at infinite dilution; xn = mol fraction of the nth substance listed; settings: 101 kPa, Liquid, Chromatography, x1 = 0
[2] = 101.33 kPa, Liquid, Vibrating tube method

activity coefficient ([1]; 318.15 K)	activity coefficient ([1]; 323.15 K)	activity coefficient ([1]; 333.15 K)	activity coefficient ([1]; 343.15 K)	activity coefficient ([1]; 353.15 K)	mass density ([2]; 288.15 K) [kg/m3]	mass density ([2]; 293.15 K) [kg/m3]	mass density ([2]; 298.15 K) [kg/m3]	mass density ([2]; 303.15 K) [kg/m3]	mass density ([2]; 308.15 K) [kg/m3]	mass density ([2]; 313.15 K) [kg/m3]	mass density ([2]; 318.15 K) [kg/m3]	SMILES
0.428 ± 0.029	0.43 ± 0.029	0.43 ± 0.029	0.431 ± 0.029	0.432 ± 0.029								CC#N [acetonitrile] + CCn1cc[n+](C)c1.N#C[B-](C#N)(C#N)C#N
42.4 ± 2.2	40.7 ± 2.1	37.5 ± 1.9	34.8 ± 1.8	32.3 ± 1.7								CCCCCCC [heptane] + CCn1cc[n+](C)c1.N#C[B-](C#N)(C#N)C#N
2.62 ± 0.13	2.61 ± 0.13	2.61 ± 0.13	2.61 ± 0.13	2.61 ± 0.13								CCc1ccccc1 [ethylbenzene] + CCn1cc[n+](C)c1.N#C[B-](C#N)(C#N)C#N
0.699 ± 0.035	0.709 ± 0.035	0.727 ± 0.036	0.744 ± 0.036	0.761 ± 0.037								C1CCOC1 [tetrahydrofuran] + CCn1cc[n+](C)c1.N#C[B-](C#N)(C#N)C#N
0.989 ± 0.043	1 ± 0.04	1.02 ± 0.05	1.04 ± 0.05	1.06 ± 0.05								CCOC(C)=O [ethyl acetate] + CCn1cc[n+](C)c1.N#C[B-](C#N)(C#N)C#N
318 ± 17	323 ± 17	333 ± 17	343 ± 18	353 ± 18								CCC1CCCCC1 [ethylcyclohexane] + CCn1cc[n+](C)c1.N#C[B-](C#N)(C#N)C#N
0.653 ± 0.034	0.662 ± 0.034	0.682 ± 0.034	0.7 ± 0.035	0.723 ± 0.036								COC(C)=O [methyl ethanoate] + CCn1cc[n+](C)c1.N#C[B-](C#N)(C#N)C#N
0.452 ± 0.03	0.47 ± 0.03	0.505 ± 0.031	0.539 ± 0.031	0.574 ± 0.032								COCCOC [1,2-dimethoxyethane] + CCn1cc[n+](C)c1.N#C[B-](C#N)(C#N)C#N
1.3 ± 0.06	1.25 ± 0.06	1.15 ± 0.05	1.07 ± 0.05	1 ± 0.04								CCO [ethanol] + CCn1cc[n+](C)c1.N#C[B-](C#N)(C#N)C#N
1.16 ± 0.05	1.19 ± 0.05	1.28 ± 0.06	1.34 ± 0.06	1.41 ± 0.07								FC(F)(F)C(Cl)Br (configuration not stated) [1-bromo-1-chloro-2,2,2-trifluoroethane] + CCn1cc[n+](C)c1.N#C[B-](C#N)(C#N)C#N
20.4 ± 1.1	19.7 ± 1	18.4 ± 1	17.2 ± 0.9	16.3 ± 0.8								CC1CCCCC1 [methylcyclohexane] + CCn1cc[n+](C)c1.N#C[B-](C#N)(C#N)C#N
0.917 ± 0.041	0.89 ± 0.04	0.84 ± 0.039	0.795 ± 0.038	0.755 ± 0.036								CO [methanol] + CCn1cc[n+](C)c1.N#C[B-](C#N)(C#N)C#N
64.2 ± 3.3	61.2 ± 3.2	55.8 ± 2.9	51 ± 2.7	47 ± 2.4								CCCCCCCC [octane] + CCn1cc[n+](C)c1.N#C[B-](C#N)(C#N)C#N
1.15 ± 0.05	1.15 ± 0.05	1.17 ± 0.05	1.18 ± 0.05	1.19 ± 0.05								c1ccccc1 [benzene] + CCn1cc[n+](C)c1.N#C[B-](C#N)(C#N)C#N
0.812 ± 0.038	0.829 ± 0.038	0.863 ± 0.039	0.895 ± 0.04	0.926 ± 0.041								ClC(Cl)Cl [trichloromethane] + CCn1cc[n+](C)c1.N#C[B-](C#N)(C#N)C#N
0.942 ± 0.042	0.947 ± 0.042	0.957 ± 0.042	0.967 ± 0.043	0.978 ± 0.043								c1ccsc1 [thiophene] + CCn1cc[n+](C)c1.N#C[B-](C#N)(C#N)C#N
28.8 ± 1.5	27.8 ± 1.4	26.1 ± 1.4	24.6 ± 1.3	23.3 ± 1.2								C=CCCCCCC [oct-1-ene] + CCn1cc[n+](C)c1.N#C[B-](C#N)(C#N)C#N
2.77 ± 0.14	2.8 ± 0.14	2.85 ± 0.15	2.9 ± 0.15	2.95 ± 0.15								COC(C)(C)C [2-methoxy-2-methylpropane] + CCn1cc[n+](C)c1.N#C[B-](C#N)(C#N)C#N
0.656 ± 0.034	0.665 ± 0.034	0.682 ± 0.034	0.698 ± 0.035	0.714 ± 0.035								ClCCl [dichloromethane] + CCn1cc[n+](C)c1.N#C[B-](C#N)(C#N)C#N
					1044.44 ± 0.26	1040.43 ± 0.26	1036.44 ± 0.26	1032.47 ± 0.26	1028.54 ± 0.25	1024.64 ± 0.25	1020.76 ± 0.25	CCn1cc[n+](C)c1.N#C[B-](C#N)(C#N)C#N [1-ethyl-3-methylimidazolium tetracyanoborate]
1.62 ± 0.08	1.55 ± 0.08	1.42 ± 0.07	1.31 ± 0.06	1.22 ± 0.06								CCCO [propan-1-ol] + CCn1cc[n+](C)c1.N#C[B-](C#N)(C#N)C#N
7.07 ± 0.36	7.08 ± 0.36	7.1 ± 0.37	7.11 ± 0.37	7.13 ± 0.37								CC(C)OC(C)C [diisopropyl ether] + CCn1cc[n+](C)c1.N#C[B-](C#N)(C#N)C#N
0.528 ± 0.031	0.535 ± 0.031	0.549 ± 0.031	0.563 ± 0.032	0.576 ± 0.032								COC(=O)OC [dimethyl carbonate] + CCn1cc[n+](C)c1.N#C[B-](C#N)(C#N)C#N
13.8 ± 0.7	13.4 ± 0.7	12.5 ± 0.6	11.8 ± 0.6	11.1 ± 0.6								C1CCCCC1 [cyclohexane] + CCn1cc[n+](C)c1.N#C[B-](C#N)(C#N)C#N
1.63 ± 0.08	1.56 ± 0.08	1.43 ± 0.07	1.32 ± 0.06	1.23 ± 0.06								CC(C)O [propan-2-ol] + CCn1cc[n+](C)c1.N#C[B-](C#N)(C#N)C#N

SMILES	activity coefficient ([1]; 318.15 K)	activity coefficient ([1]; 323.15 K)	activity coefficient ([1]; 333.15 K)	activity coefficient ([1]; 343.15 K)	activity coefficient ([1]; 353.15 K)	mass density ([2]; 288.15 K) [kg/m3]	mass density ([2]; 293.15 K) [kg/m3]	mass density ([2]; 298.15 K) [kg/m3]	mass density ([2]; 303.15 K) [kg/m3]	mass density ([2]; 308.15 K) [kg/m3]	mass density ([2]; 313.15 K) [kg/m3]	mass density ([2]; 318.15 K) [kg/m3]
ClC(Cl)(Cl)Cl [tetrachloromethane] + CCn1cc[n+](C)c1.N#C[B-](C#N)(C#N)C#N	3.56 ± 0.18	3.56 ± 0.18	3.55 ± 0.18	3.54 ± 0.18	3.53 ± 0.18							
Cc1cccc(C)c1 [1,3-dimethylbenzene] + CCn1cc[n+](C)c1.N#C[B-](C#N)(C#N)C#N	2.62 ± 0.13	2.62 ± 0.13	2.63 ± 0.13	2.63 ± 0.13	2.64 ± 0.14							
C[N+](=O)[O-] [nitromethane] + CCn1cc[n+](C)c1.N#C[B-](C#N)(C#N)C#N	0.419 ± 0.029	0.421 ± 0.029	0.423 ± 0.029	0.426 ± 0.029	0.429 ± 0.029							
CC(C)=O [acetone] + CCn1cc[n+](C)c1.N#C[B-](C#N)(C#N)C#N	0.437 ± 0.029	0.443 ± 0.03	0.454 ± 0.03	0.466 ± 0.03	0.479 ± 0.03							
CCC(C)=O [butanone] + CCn1cc[n+](C)c1.N#C[B-](C#N)(C#N)C#N	0.577 ± 0.032	0.584 ± 0.032	0.605 ± 0.033	0.611 ± 0.033	0.626 ± 0.033							
Cc1ccccc1 [toluene] + CCn1cc[n+](C)c1.N#C[B-](C#N)(C#N)C#N	1.68 ± 0.08	1.69 ± 0.08	1.71 ± 0.09	1.72 ± 0.09	1.74 ± 0.09							
